Read-outs that look alike come from different tables or passages of the source.
Key:
[1] = tested on: IL-18 secretion by human PBMC; assay: Role of IFN-γ: IL-18 inhibition in PBMC with IFN-γ neutralizing antibody; format: cell-based; conditions: anti IFN-γ antibody 0.1 μg/ml 2 hours before AS101 0.5 μg/ml; SAC; 24 hours; FIG. 6
Description: (§1) The R&D Systems (Minneapolis, Minn.) IL-18 and IL-1β ELISA kits were used for the quantitative measurement of these cytokines either in supernatants or in mice sera.
In order to investigate the possibility that enhancement of IFN-γ levels by AS101 might have a synergistic effect on IL-18 inhibition, rhIFN-γ neutralizing antibody (0.1 μg/ml) was delivered to PBMC (2.5×10^6 cells/ml) 2 hours before AS101 (0.5 μg/ml). SAC (10^−3 v/v) was added 1 hour following AS101. Supernatants were collected after 24 hours and evaluated for IL-18 levels.

[2] = tested on: IL-1β secretion by human PBMC; assay: SAC-induced secretion of IL-1β by PBMC (ELISA); format: cell-based
Description: (§2) Human peripheral blood mononuclear cells (PBMC) were isolated from randomly selected healthy donors by Ficoll-Hypaque (Pharmacia, Piscataway, N.J.) density-gradient centrifugation. PBMC were adjusted to 2.5×10^6 cells/ml and cultured in enriched RPMI 1640 medium (Biological industries, Kibbutz Beit Haemek, Israel) with 10% FCS (Biological industries) at 37° C. and 7% CO2.
(§3) Cells were first treated with various concentrations of AS101 and after 1 hour SAC was added. After 24 hours, supernatants were collected and evaluated for cytokine content. Viability at the end of these experiments, as assessed by tryptan blue exclusion method, was always found to be >95%.
as §1
(§4) PBMC (2.5×10^6 cells/ml) were treated with various concentrations of AS101 and after 1 hour were stimulated with SAC (10^−3 V/V). Results represent means±SE of three experiments **p<0.05 decrease vs SAC; *p<0.01 decrease vs SAC. Optimal concentration of SAC for cytokine secretion stimulation was 10^−3 v/v (data not shown).

[3] = tested on: IL-18 secretion by human PBMC; assay: SAC-induced secretion of IL-18 by PBMC (ELISA); format: cell-based
Description: as §2, §3, §1, §4

serine proteases = conditions: Inorg. Chem. 37: 1704-1712, 1998; cited from earlier work
[4] = tested on: IL-18 mRNA in human HaCat keratinocytes; assay: IL-18 mRNA levels in HaCat cells (RT-PCR); format: cell-based; conditions: AS101 1 μg/ml preincubated 2 hours, FIG. 4b
Description: Total RNA was prepared from treated or non treated human keratinocytes by using Tri-reagent (Sigma Aldrich, Rehovot, Israel). Oligo(dt) primed cDNA was synthesized using 2 μg of total RNA. mRNA/cDNA specific cytokine primer pairs were designed and PCR was performed using the following primer pairs (5 μM each): IL-18 (product 558 bp): 178-201 [5′-[…]-3′], 735-759 [5′-[…]-3′]. Cycling conditions were 95° C., 4 minutes; 94° C., 1 minute, 65° C., 1 minute; and 72° C., 1 minute for 29 cycles. GPDH (glyceraldehyde-phosphate-dehydrogenase, product 500 bp) was used as a control: [5′-[…]-3′],[5′-[…]-3′]. The amplified products were visualized using ethidium bromide staining.
Changes at the IL-18 mRNA level were studied when keratinocytes were pretreated with AS101 (1 μg/ml) using optimal concentrations of PMA (10 ng/ml) and LPS (50 ng/ml). Total RNA was isolated from whole cell lysates. GAPDH was used as internal control. Cultured keratinocytes (1×10^6 cells/ml) were either untreated or treated with PMA at 5 ng/ml and 10 ng/ml (line 2 and 3 respectively) and with LPS at 40 ng/ml and 50 ng/ml (line 4 and 5 respectively).
PCR products were amplified for 29 cycles.

cysteine proteases = conditions: via a catalytic thiol oxidation; Inorg. Chem. 37: 1704-1712, 1998; cited from earlier work
IL-1β = IL-1β levels in LPS-induced septic mice; format: in vivo, c57BL/6J mice; conditions: 24 hours after LPS, FIG. 7b
Description: (§5) For serum cytokine evaluation, PBS or AS101 was injected intraperitoneally (i.p.) 2 hours following LPS treatment. For survival experiments AS101 was injected i.p. daily at various concentrations starting 1 hour and up to 24 hours following LPS until the end of the experiment.
as §1
(§6) PBS (control) and AS101 at various concentrations were injected into c57BL/6J mice 2 hours following induction of sepsis by LPS (0.5 mg/mouse) treatment. 24 hours after LPS injection, mice were sacrificed and evaluated for plasma concentration of these cytokines in order to determine whether AS101 can inhibit production of IL-18 and IL-1β in vivo.

aspartic proteases = conditions: Inorg. Chem. 37: 1704-1712, 1998; cited from earlier work
[5] = biological target: T1, caspase-1 (ICE-Interleukin-β-converting enzyme), rCaspase-1 (Homo sapiens, UniProt P29466); assay: Caspase-1 activity enzymatic assay with colorimetric substrate Ac-YVAD-pNA; format: biochemical; conditions: AS101 2.5, 5, 10 μM; 1 hour, 30° C., 405 nm; FIG. 1
T1 construct: purchased Biomol International Industries L.P. Canada
T1 sequence (P29466 120-297 limits assumed): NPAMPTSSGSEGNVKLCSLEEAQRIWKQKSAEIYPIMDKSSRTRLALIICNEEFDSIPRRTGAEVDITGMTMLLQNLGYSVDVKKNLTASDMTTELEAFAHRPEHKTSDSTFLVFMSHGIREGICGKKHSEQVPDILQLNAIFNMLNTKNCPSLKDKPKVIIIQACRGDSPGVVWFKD
T1 sequence (P29466 317-404 limits assumed): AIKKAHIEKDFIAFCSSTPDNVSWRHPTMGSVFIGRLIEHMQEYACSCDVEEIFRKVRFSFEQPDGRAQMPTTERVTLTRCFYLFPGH
Description: DTT, which is present in the commercial enzyme solution, interacts with AS101 and thus would interfere with the inhibition studies. Therefore removal of DTT from the enzyme solution prior to the enzymatic assay was necessary. Gel permeation chromatography was carried out at 4° C. 50 μl solution of commercial activated rCaspase-1 was loaded on a 1×15 cm Sephadex G-15 column (Pharmacia), preequilibrated with assay buffer containing: 50 mM Hepes, 100 mM NaCl, 0.1% CHAPS, 1 mM EDTA, 10% Glycerol at pH 7.4. The enzyme was eluted with the same buffer (degassed) at 0.5 ml/minute and 500 μl fractions were collected. The enzyme-substrate reaction was measured continuously with 1 min. intervals for a total time of 1 hour at 30° C. and was read at 405 nm. The total volume of the reaction was 100 μl and contained as following: 50 μl rCaspase-1 (0.8 U/μl), 25 μl colorimetric substrate (Ac-YVAD-pNA, 200 μM), 25 μl of AS101 at various concentrations (2.5 μM, 5 μM, 10 μM) in assay buffer.
AS101 was tested for its possible inhibitory activity towards a member of the cysteine protease family, caspase-1 (ICE-Interleukin-β-converting enzyme). The enzymatic reaction was carried out with caspase-1 specific colorimetric substrate, Ac-YVAD-pNA, and in the absence or the presence of AS101 at different concentrations. The enzyme activity was tested for 1 hour and measured at 405 nm. […]

LPS-induced septic mice = assay: Survival of LPS-induced septic mice; format: in vivo
Description: as §5
Data are presented as mean±SE. For comparisons of means of the various groups, the pairwise t test was used. Survival curves were statistically analyzed by comparing the cumulative percentage of survival using the Gehan-Wilcoxon test.
In order to study the relationship between the above in vitro and in vivo results and the effect of AS101 on survival of mice following induction of sepsis, AS101 at a concentration of 10 μg/mouse was injected into LPS-induced septic mice at various time points after LPS (0.35 mg/mouse) treatment. Survival was monitored for 9 days.

[6] = tested on: IL-18 secretion by human PBMC; assay: Role of nitric oxide: IL-18 inhibition in PBMC with L-NAME; format: cell-based; conditions: L-NAME 20 nM 2 hours before AS101 0.5 μg/ml; SAC; 24 hours; FIG. 5
Description: as §1
L-NAME/D-NAME (20 nM) were delivered to PBMC (2.5×10^6 cells/ml)2 hours before AS101 (0.5 μg/ml). SAC (10^−3 v/v) was added 1 hour following AS101. Supernatants were collected after 24 hours and evaluated for IL-18 levels.

PBMC = assay: Viability of treated cells by trypan blue exclusion; format: cell-based, human; conditions: cells treated with various concentrations of AS101, SAC, 24 hours
Description: as §3

metallo proteases = conditions: Inorg. Chem. 37: 1704-1712, 1998; cited from earlier work
[7] = rats, cited from earlier work
IL-18 = IL-18 levels in LPS-induced septic mice; format: in vivo, c57BL/6J mice; conditions: 24 hours after LPS, FIG. 7a
Description: as §5, §1, §6

[8] = tested on: active form of IL-18 in human HaCat keratinocytes; assay: Western blot of intracellular active form of IL-18 in HaCat keratinocytes; format: cell-based; conditions: AS101 1 μg/ml preincubated 2 hours, FIG. 3
Description: Human HaCat keratinocytes were adjusted to 1×10^6 cells/ml and cultured at 37° C. and 7% CO2 in enriched Dulbecco's modified Eagle's medium (DMEM)(Biological industries, Kibbutz Beit Haemek, Israel), supplemented with 10% FCS (Biological industries).
Total cell extracts were prepared by suspension in ice-cold lysis buffer containing 50 mM Tris (pH 8.0), 150 mM NaCl, 1% NP-40, 0.1% SDS, 5 mM EDTA, 0.2 mM PMSF, 50 mM NaF, […] sodium vanadate, […]. Cell lysates were boiled for 5 min and electrophoresed on 15% SDS-PAGE and were then blotted with monoclonal IL-18 antibodies (R&D Systems, Minneapolis, Minn.). Blots were developed using horseradish peroxidase-conjugated secondary antibodies and the ECL detection system (Amersham Pharmacia Biotech).
IL-18 is […] produced by keratinocytes after treatment with LPS or PMA. In order to determine whether the inhibitory effect of AS101 on the formation of the active form of IL-18 is consistent and will repeat itself in another type of cell culture, Western Blot analysis of total cellular proteins from human HaCat keratinocytes was performed using anti-IL-18 antibodies. […]
Cultured keratinocytes (1×10^6 cells/ml) were preincubated for 2 hours with AS101 (1 μg/ml) and then treated with PMA or LPS. Expression of IL-18 was assessed by WB analysis while α-tubulin was used as internal control. […]

[9] = tested on: human HaCat keratinocytes; assay: IL-18 production in HaCat keratinocytes after AS101 treatment alone; format: cell-based
Description: IL-18 production has a self-regulating negative feedback loop. This cytokine can down regulate its own production by inducing the production of a native inhibitor, IL-18BP, through an IFN-γ dependent mechanism. Since AS101 has been previously shown to increase IFN-γ due to the direct inhibition of the […], studies were carried out to determine whether the inhibitory effect of AS101 results from induction of IL-18BP directly and/or whether neutralization of IFN-γ would abrogate the inhibitory effect of AS101 on IL-18.

[10] = AS101 5 μg/mouse i.p. 2 hours after LPS 0.5 mg/mouse
[11] = AS101 10 μg/mouse i.p. 2 hours after LPS 0.5 mg/mouse

With `Cl[TeH]1(Cl)(Cl)OCCO1` [AS101, ammonium trichloro(dioxyethylene-O,O′)tellurate] the “IL-18 inhibition after neutralization of IFN-γ” value [1] was “does not abrogate IL-18 inhibition”, the “SAC-induced secretion levels of IL-1β” value ([2]; AS101 1 hour before SAC 10^-3 v/v, after 24 hours, FIG. 2b) was “decrease SAC-induced secretion levels” and the “concentration from which the decrease in IL-1β secretion is significant (p<0.05)” value ([2]; SAC, 24 hours) was ≥ 0.5 µg/mL. The “SAC-induced secretion levels of IL-18” value ([3]; AS101 1 hour before SAC 10^-3 v/v, after 24 hours, FIG. 2a) was “decrease SAC-induced secretion levels”, the “concentration from which the decrease in IL-18 secretion is significant (p<0.05)” value ([3]; SAC, 24 hours) was ≥ 0.5 µg/mL and the “inhibition of serine proteases” value (serine proteases) was “no inhibition”. For the same molecule, the “IL-18 mRNA levels” value ([4]; then LPS 50 ng/ml) was “Changes in mRNA levels were not detected”, the “IL-18 mRNA levels” value ([4]; then PMA 10 ng/ml) was “Changes in mRNA levels were not detected” and the “inhibition of cysteine proteases” value (cysteine proteases) was “inhibits cysteine proteases”. For the same molecule, the “IL-1β level in septic mice” value (IL-1β; [10]) was “significantly inhibited”, the “IL-1β level in septic mice” value (IL-1β; [11]) was “significantly inhibited” and the “inhibition of aspartic proteases” value (aspartic proteases) was “no inhibition”. For the same molecule, the “effect on ICE activity (percent residual enzymatic activity)” value [5] was “inhibits ICE activity directly, in a concentration-dependant manner”, the “effect on survival of septic mice” value (LPS-induced septic mice; AS101 10 μg/mouse i.p. daily, injected after LPS 0.35 mg/mouse, survival monitored 9 days, FIG. 8) was “beneficial effect” and the “optimal dose for survival” value (LPS-induced septic mice; injected 6 hours following LPS and thereafter every day) was 10 μg/mouse. The “inhibitory effect on IL-18 secretion in the presence of NOS inhibitor L-NAME” value [6] was “not diminished”, the “viability at the end of the experiments” value (PBMC) was > 95% and the “inhibition of metallo proteases” value (metallo proteases) was “no inhibition”. For the same molecule, the “LD50 relative to the immunologically effective dose” value ([7]; intramuscular administration) was 500-1000 folds, the “LD50 relative to the immunologically effective dose” value ([7]; intravenous administration) was 500-1000 folds and the “IL-18 level in septic mice” value (IL-18; [10]) was “significantly inhibited”. The “IL-18 level in septic mice” value (IL-18; [11]) was “significantly inhibited”, the “amounts of the active form of IL-18” value ([8]; then LPS 50 ng/ml) was “produced a decrease in the amounts of the active form of IL-18” and the “amounts of the active form of IL-18” value ([8]; then PMA 10 ng/ml) was “produced a decrease in the amounts of the active form of IL-18”. The “induction of IL-18 production by AS101 treatment” value [9] was “not able to induce IL-18 production”.

Source: patent US8623908B2, “Use of tellurium compounds for inhibition of interleukin-converting enzyme” (Biomas Ltd., priority 2004, dated 2014)
